The series in a line: Solubility of the malonic acid derivative in toluene. Format: physicochemical. The following applies: based on total weight of the solution.

Regarding `CC(CC=C(C(=O)O)C(=O)O)CC(C)(C)C` (stereo not shown) [Example 3, 2-(3,5,5-Trimethylhexylidene)propanedioic Acid], the solubility in toluene result is on record as “greater than 1 weight percent”.

These data come from patent US9914874B2, “Composite nanoparticles including a malonic acid derivative” (3M INNOVATIVE PROPERTIES COMPANY, priority 2013, dated 2018).
